In ChEMBL document CHEMBL1201862, “PubChem BioAssay data set” (2004):
The source made the active and inactive calls.

Legend:
Jurkat = assay: SAR Analysis of small molecule inhibitors of T-cell specific antigen receptor-induced NF-kB activation in a Jurkat cell line using a luminescence assay - Set 2. [Related pubchem assays (depositor defined):AID435003, AID435012, AID465]; type: functional, cell-based; conditions: Homo sapiens
HEK293 [1] = assay: SAR Analysis of small molecule inhibitors of T-cell specific antigen receptor-induced NF-kB activation in a HEK-293T cell line using a luminescence assay - Set 2. [Related pubchem assays (depositor defined):AID435003, AID435012, AID489026]; type: functional, cell-based; conditions: Homo sapiens
HEK293 [2] = assay: HEK293T cell viability loss, resazurin readout – resazurin fluorescence, cytotoxicity control for NF-kB activator project, SAR follow-up (AID 493251); type: functional, cell-based; conditions: Homo sapiens
[3] = biological target: 26S proteasome non-ATPase regulatory subunit 14 (Homo sapiens, UniProt O00487); assay: inhibition of proteasome subunit RPN11 – biochemical, fluorescence polarization, uHTS hits, confirmation (AID 602368); type: functional
Prothrombin = Prothrombin (Bos taurus, UniProt P00735); assay: thrombin protease inhibitors – biochemical, fluorescence polarization, uHTS hits, dose response (AID 602369); type: functional
[4] = biological target: 72 kDa type IV collagenase (Homo sapiens, UniProt P08253); assay: Dose Response validation of uHTS RPN11 inhibitor hits using a MMP-2 Fluorescence assay.; type: functional
HEK293 [5] = assay: cells; type: functional, cell-based; conditions: Homo sapiens
HEK293 [6] = assay: cells; type: functional, cell-based; conditions: Homo sapiens; remark: listed apart in the source
HEK293 [7] = assay: NOD2 signaling inhibitors in MDP-stimulated cells, cell-based, uHTS, luminescence (AID 2001); type: functional; conditions: Homo sapiens
HEK293 [8] = assay: inhibition of NOD1-driven NF-kB reporter – cell-based, luminescence, uHTS, primary screen (AID 1578); type: functional; conditions: Homo sapiens
Melanocortin receptor 4 = Melanocortin receptor 4 (Homo sapiens, UniProt P32245); type: functional, cell-based;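 note: Cell-based assay with luminescence read-out, confirmatory dose-response testing for agonist activity of biased ligands at MC4R; human U2OS cells with tagged receptor and beta-arrestin; potency of agonists that increase receptor coupling to beta-arrestin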
[9] = Luminescence Cell-Based Dose Confirmation HTS to Identify Activators of 5'UTR Stem-Loop Driven Alpha-Synuclein mRNA Translation in H4 Neuroglioblastoma Cells. [Related pubchem assays: 1829 (Project Summary), 1814 (Primary HTS)]; type: functional
Escherichia coli = assay: microbe, parasite or virus in culture
[10] = Luminescence Cell-Based Dose Response HTS to Identify Activators of Luciferase Translation or Activity in H4 […] Cells. [Related pubchem assays: 1829 (Project Summary), 1814 (Primary HTS)]; type: functional
H4 = assay: Luminescence Cell-Based Dose Response HTS to Identify Activators of 5'UTR Stem-Loop Driven Prion Protein mRNA Translation in H4 Neuroglioblastoma Cells. [Related pubchem assays: 1829 (Project Summary), 1814 (Primary HTS)]; type: functional; conditions: Homo sapiens
[11] = luciferase reporter signal suppression in cells – H4 neuroglioma cells, luminescence, dose response (AID 1990); type: functional, cell-based
INS1 = assay: INS-1E survival protection against cytokine death – cell-based, luminescence, retest, dose response (AID 449756); type: functional; conditions: Rattus norvegicus;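 note: cell death triggered by IL-1 beta plus TNF-alpha plus IFN-gamma mixture; protective hits raise ATP signal compared with cytokine alone wells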
[12] = HEK-293T viability loss after treatment – luminescence, T-cell screen hits, cytotoxicity control for TCR NF-kB inhibitor project, dose response (AID 489026); type: functional, cell-based;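 note: cells exposed to compound about 14 hours before the viability readout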
[13] = biological target: T1, Heat shock factor protein 1 (Mus musculus, UniProt P38532); assay: enhancement of HSF1-driven luciferase signal – cell-based, NIH3T3, luminescence, dose retest, confirmation (AID 435004); type: functional;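 note: stress induced by proteasome inhibitor MG132 added 30 min after compound; luciferase reporter driven by HSF1 response element in NIH3T3 cells; actives raise luminescence as potentiators of the MG132 stress response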
T1 sequence (P38532 whole entry): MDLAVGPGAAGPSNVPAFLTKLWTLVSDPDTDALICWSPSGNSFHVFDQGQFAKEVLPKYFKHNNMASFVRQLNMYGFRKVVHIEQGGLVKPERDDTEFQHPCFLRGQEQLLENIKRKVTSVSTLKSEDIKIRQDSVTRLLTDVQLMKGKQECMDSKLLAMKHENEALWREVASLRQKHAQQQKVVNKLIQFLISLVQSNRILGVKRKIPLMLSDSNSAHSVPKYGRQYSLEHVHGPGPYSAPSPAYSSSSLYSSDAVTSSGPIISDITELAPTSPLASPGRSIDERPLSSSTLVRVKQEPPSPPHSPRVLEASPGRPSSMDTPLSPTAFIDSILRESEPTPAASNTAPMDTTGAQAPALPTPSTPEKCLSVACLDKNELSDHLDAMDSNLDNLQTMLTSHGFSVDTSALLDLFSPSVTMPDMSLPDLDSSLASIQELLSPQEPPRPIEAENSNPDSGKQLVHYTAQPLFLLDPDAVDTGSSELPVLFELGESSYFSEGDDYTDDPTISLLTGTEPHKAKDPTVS

[14] = Luminescence Cell-Based Dose Response HTS to Identify Inhibitors of 5'UTR Stem-Loop Driven Prion Protein mRNA Translation in H4 Neuroglioblastoma Cells. [Related pubchem assays: 1827 (Project Summary), 1813 (Primary HTS)]; type: functional
[15] = alpha-synuclein stem-loop luciferase translation blockers – H4 neuroglioma cells, luminescence, confirmation (AID 1988); type: functional, cell-based

72 kDa type IV collagenase, sequence (P08253 whole entry): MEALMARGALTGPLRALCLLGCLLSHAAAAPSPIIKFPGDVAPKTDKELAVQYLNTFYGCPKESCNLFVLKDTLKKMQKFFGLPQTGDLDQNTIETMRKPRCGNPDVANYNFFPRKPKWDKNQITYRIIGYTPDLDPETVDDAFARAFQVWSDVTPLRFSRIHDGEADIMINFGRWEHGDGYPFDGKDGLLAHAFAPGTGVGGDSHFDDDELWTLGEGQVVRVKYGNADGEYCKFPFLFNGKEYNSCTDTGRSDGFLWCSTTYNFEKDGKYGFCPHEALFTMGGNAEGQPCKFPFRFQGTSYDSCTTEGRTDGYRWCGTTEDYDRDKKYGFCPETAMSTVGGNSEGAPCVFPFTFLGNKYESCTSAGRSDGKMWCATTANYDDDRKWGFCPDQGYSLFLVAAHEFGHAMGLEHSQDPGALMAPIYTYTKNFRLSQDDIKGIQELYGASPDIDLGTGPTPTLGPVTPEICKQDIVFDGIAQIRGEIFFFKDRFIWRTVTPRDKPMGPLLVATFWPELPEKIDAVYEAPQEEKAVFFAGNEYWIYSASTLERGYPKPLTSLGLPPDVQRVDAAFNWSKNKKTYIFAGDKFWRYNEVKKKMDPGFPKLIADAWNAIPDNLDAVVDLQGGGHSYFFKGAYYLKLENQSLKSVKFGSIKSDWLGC
26S proteasome non-ATPase regulatory subunit 14, sequence (O00487 whole entry): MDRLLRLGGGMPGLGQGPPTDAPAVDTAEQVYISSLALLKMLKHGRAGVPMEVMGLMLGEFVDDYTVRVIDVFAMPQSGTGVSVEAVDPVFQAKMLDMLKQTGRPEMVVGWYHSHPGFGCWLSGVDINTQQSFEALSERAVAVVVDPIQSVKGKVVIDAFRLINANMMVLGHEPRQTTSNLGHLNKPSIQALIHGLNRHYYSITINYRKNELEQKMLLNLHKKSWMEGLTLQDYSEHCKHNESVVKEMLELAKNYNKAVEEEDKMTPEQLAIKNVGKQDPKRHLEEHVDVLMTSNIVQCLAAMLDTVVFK
Melanocortin receptor 4, sequence (P32245 whole entry): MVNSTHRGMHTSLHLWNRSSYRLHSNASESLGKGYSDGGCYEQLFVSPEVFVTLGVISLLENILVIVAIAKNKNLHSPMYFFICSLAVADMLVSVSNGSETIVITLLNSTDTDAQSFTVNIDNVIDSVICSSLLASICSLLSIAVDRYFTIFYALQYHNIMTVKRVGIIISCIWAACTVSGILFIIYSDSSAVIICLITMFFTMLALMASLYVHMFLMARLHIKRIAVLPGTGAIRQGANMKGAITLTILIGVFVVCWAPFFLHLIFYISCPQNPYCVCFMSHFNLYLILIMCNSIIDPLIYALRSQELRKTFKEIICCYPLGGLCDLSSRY

Q: Which IC50 (Jurkat) does the source give for `CCOc1ccc(C(=O)Nc2ccc(NC(=O)c3cc4ccccc4o3)cc2)cc1[N+](=O)[O-]` here?
A: Its IC50 is 48.8 µM (inactive).

Q: What about the IC50 (HEK293 [1]) of the same molecule?
A: Its IC50 is > 80 µM (inactive).

Q: What about the IC50 (HEK293 [2]) of the same molecule?
A: The IC50 was > 80 µM (inactive).

Q: With `COc1cc(/C=C2/C(=N)N3C(=NC2=O)SN=C3S(C)(=O)=O)ccc1OC(=O)c1ccco1` as the molecule, how does the IC50 [3] read?
A: The IC50 was 31.9 µM (active).

Q: And the IC50 (Prothrombin)?
A: The IC50 was 34.4 µM (active).

Q: And the IC50 [4]?
A: Its IC50 is 94.8 µM (active).

Q: For `CCc1cc(C(=O)NC2CCCN(Cc3ccccc3F)C2)n(C)n1` (stereo not given), which IC50 (HEK293 [5]) is on record?
A: Its IC50 is > 20 µM (inactive).

Q: And the IC50 (HEK293 [6])?
A: Its IC50 is 16.5 µM (active).

Q: And the IC50 (HEK293 [7])?
A: Its IC50 is > 20 µM (inactive).

Q: What about the EC50 (HEK293 [8]) of the same molecule?
A: Its EC50 is 9.78 µM (active).

Q: Which results are given for `COc1ccc(/C=C2\Oc3cc(OCC(=O)N4CCC[C@H]4C(=O)O)ccc3C2=O)c(OC)c1`?
A: IC50 [3]: 11 µM (active); IC50 (Prothrombin): 14.3 µM (active); IC50 [4]: > 100 µM (inactive)

Q: With `CC(C)c1ccc(NS(=O)(=O)c2ccc(-n3cccn3)cc2)cc1` as the molecule, how does the EC50 (Melanocortin receptor 4) read?
A: Its EC50 is > 89.2 µM (inactive).

Q: For `CC1Cc2cc(C(=O)C3=C(O)C(=O)N(Cc4ccco4)C3c3cccs3)ccc2O1` (stereo not given), which EC50 [9] is on record?
A: Its EC50 is 11.9 µM (active).

Q: And the AC50 (Escherichia coli)?
A: The AC50 was 18.3 µM (active).

Q: And the EC50 [10]?
A: The EC50 was 8.54 µM (active).

Q: What about the EC50 (H4) of the same molecule?
A: Its EC50 is 35.2 µM (active).

Q: For `CC(C)(C)OC(=O)NCC(=O)N1CCC(C(=O)O)CC1`, which AC50 (Escherichia coli) is on record?
A: Its AC50 is 26.6 µM (active).

Q: Which results are given for `O=[N+]([O-])c1ccc(-c2nc(C(Cl)Cl)c3ccccc3n2)cc1`?
A: EC50 [11]: 1.79 µM (active); AC50 (INS1): 1.89 µM (active); IC50 [12]: > 80 µM (inactive); EC50 [13]: > 260 µM (inconclusive); EC50 [14]: 0.407 µM (active); EC50 [15]: 0.336 µM (active)
